Results on eleven molecules are retold here after patent US11780826B2 (Amgen Inc., priority 2017, dated 2023).

The subject of this assay is Bovine cardiac myofibrils. Kind of assay: In vitro model of dose-dependent myofibril ATPase modulation (AC1.4, pyruvate kinase/lactate dehydrogenase-coupled ATPase assay at pCa25). It counts as biochemical. As to conditions: concentration at which ATPase activity was 1.4-fold higher than the bottom of the dose curve, mean of a minimum of two independent tests. In short, it runs like this: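 Compound dilutions were premixed with myofibrils, coupling enzymes, EGTA and CaCl2, then the reaction was started with an equal volume carrying ATP (final 1 mM), NADH and PEP. ATP turnover was followed at 340 nm, and dose responses were fit to a four-parameter equation.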
`COc1ccc(Cl)cc1CNC(=O)[C@H]1CCCN1C(=O)[C@H]1CCCN(S(=O)(=O)N2CC(C#N)C2)C1` [Example 770, N-(5-chloro-2-methoxybenzyl)-1-(((3S)-1-((3-cyano-1-azetidinyl)sulfonyl)-3-piperidinyl)carbonyl)-D-prolinamide]: the AC1.4 was 8.1255 µM.
As for `CS(=O)(=O)c1cncc(C(=O)N2C[C@H](C(F)F)C[C@@H]2C(=O)N[C@@H](c2ccc(C(F)(F)F)cc2F)C2CC2)c1` [Example 682, (4R)-N-((R)-cyclopropyl(2-fluoro-4-(trifluoromethyl)phenyl)methyl)-4-(difluoromethyl)-1-((5-(methylsulfonyl)-3-pyridinyl)carbonyl)-D-prolinamide], the figure is 4.606 µM.
In the case of `C[C@@H](NC(=O)[C@H]1CCCN1C(=O)c1cccc(S(=O)(=O)N2CC3(CC3)C2)c1)c1ccc(C(F)(F)F)cc1` [Example 434], the AC1.4 was found to be 1.66 µM.
`C[C@@H](NC(=O)[C@H]1CCCN1C(=O)[C@@H]1CN(S(=O)(=O)N2CC(C#N)C2)CCN1)c1ccc(C(F)(F)F)cc1` [Example 428, 1-(((2S)-4-((3-cyano-1-azetidinyl)sulfonyl)-2-piperazinyl)carbonyl)-N-((1R)-1-(4-(trifluoromethyl)phenyl)ethyl)-D-prolinamide] came in with an AC1.4 of 1.606 µM.
The value for `CS(=O)(=O)c1cccc(C(=O)N2[C@@H](C(=O)N[C@@H](c3cc(F)c(C(F)F)cc3F)C3CC3)C[C@H]3C[C@H]32)c1` [Example 197, (1R,3R,5R)-N-((R)-cyclopropyl(4-(difluoromethyl)-2,5-difluorophenyl)methyl)-2-(3-(methylsulfonyl)benzoyl)-2-azabicyclo[3.1.0]hexane-3-carboxamide] was 0.3963 µM; that for `COc1cc2c(cc1F)CCC2NC(=O)[C@H]1CCCN1C(=O)[C@H]1CCCN(S(=O)(=O)N2CC(C#N)C2)C1` (stereo partly drawn) [Example 622, (2R)-1-((S)-1-((3-cyanoazetidin-1-yl)sulfonyl)piperidine-3-carbonyl)-N-(5-fluoro-6-methoxy-2,3-dihydro-1H-inden-1-yl)pyrrolidine-2-carboxamide] was 3.9515 µM; that for `O=C(N[C@@H](c1ccc(C(F)(F)F)cc1F)C1CC1)[C@H]1CCCN1C(=O)c1cccc(S(=O)(=O)C2CC2)c1` [Example 223, N-((R)-cyclopropyl(2-fluoro-4-(trifluoromethyl)phenyl)methyl)-1-(3-(cyclopropylsulfonyl)benzoyl)-D-prolinamide] was 0.4842 µM.
The value for `C[C@H](C(=O)NCc1ccc(Cl)cc1)N(C)C(=O)c1cccc(S(=O)(=O)N2CC(C#N)C2)c1` [Example 337, N-((1R)-2-((4-chlorobenzyl)amino)-1-methyl-2-oxoethyl)-3-((3-cyano-1-azetidinyl)sulfonyl)-N-methylbenzamide] was 0.9477 µM; that for `CS(=O)(=O)c1cc(C(=O)N2[C@@H](C(=O)N[C@@H](c3ccc(Cl)c(F)c3)C3CC3)C[C@H]3C[C@H]32)ccn1` [Example 795, (1R,3R,5R)-N-((R)-(4-chloro-3-fluorophenyl)(cyclopropyl)methyl)-2-((2-(methylsulfonyl)-4-pyridinyl)carbonyl)-2-azabicyclo[3.1.0]hexane-3-carboxamide] was 9.3255 µM; that for `O=C(N[C@@H](c1ccc(C(F)(F)F)c(F)c1)C1CC1)[C@H]1C[C@H]2C[C@H]2N1C(=O)c1cncc(S(=O)(=O)C2CC2)c1` [Example 491, (1R,3R,5R)-N-((R)-cyclopropyl(3-fluoro-4-(trifluoromethyl)phenyl)methyl)-2-((5-(cyclopropylsulfonyl)-3-pyridinyl)carbonyl)-2-azabicyclo[3.1.0]hexane-3-carboxamide] was 2.181 µM.
The value for `N#CC1CN(S(=O)(=O)N2CCC[C@H](C(=O)N3CCC[C@@H]3C(=O)NCc3cc(F)ccc3Cl)C2)C1` [Example 440, N-(2-chloro-5-fluorobenzyl)-1-(((3S)-1-((3-cyano-1-azetidinyl)sulfonyl)-3-piperidinyl)carbonyl)-D-prolinamide] was 1.7235 µM.
